ChEMBL document CHEMBL6074644, “Design, synthesis, and activity evaluation of water-soluble propofol derivatives as anesthetic drugs” (Bioorg Med Chem Lett, 2024)

Key:
Mus musculus [1] = assay: Anesthetic activity in iv dosed Kunming mouse by up and down method; assay type: functional
[2] = Toxicity in iv dosed Kunming mouse assessed as lethal dose; assay type: organism-based; conditions: in vivo
[3] = Therapeutic index, ratio of LD50 for toxicity in iv dosed Kunming mouse assessed as lethal dose to ED50 for anesthetic activity in iv dosed Kunming mouse; assay type: organism-based; conditions: in vivo, read-out: Ratio LD50/ED50
Mus musculus [4] = assay: Anesthetic activity in Kunming mouse assessed as disappearance of flip reflex by measuring onset time administered as single bolus dose; assay type: functional
Mus musculus [5] = assay: Anesthetic activity in Kunming mouse assessed as reappearance of flip reflex by measuring duration time administered as single bolus dose; assay type: functional

| SMILES | ED50 (Mus musculus [1]) [mg/kg] | LD50 [2] [µmol/kg] | selectivity ratio [3] | Time (Mus musculus [4]) [s] | Time (Mus musculus [5]) [s] |
| --- | --- | --- | --- | --- | --- |
| CCN1CCN(CCC(=O)Oc2c(C(C)C)cccc2C(C)C)CC1.Cl | 12 | 38000 | 3.2 | 2 | 167 |
| CCN1CCN(CC(=O)Oc2c(C(C)C)cccc2C(C)C)CC1.Cl | 8 | 11500 | 1.4 | 13 | 139 |
| CCN(CC)CCC(=O)Oc1c(C(C)C)cccc1C(C)C.Cl | 17 | 58800 | 3.5 | 3 | 162 |
| CC(C)c1cccc(C(C)C)c1OC(=O)CCN1CCOCC1.Cl | 12 | 43800 | 3.6 | 16 | 145 |
| CC(C)c1cccc(C(C)C)c1OC(=O)CCN1CCCCC1.Cl | 8.2 | 36900 | 4.5 | 21 | 152 |
| CCCN(CCC)CC(=O)OCCCC(=O)Oc1c(C(C)C)cccc1C(C)C.Cl | 9 | 45900 | 5.1 | 37 | 402 |
| CCN(CC)CC(=O)OCCCC(=O)Oc1c(C(C)C)cccc1C(C)C.Cl | 11 | 52800 | 4.8 | 20 | 371 |
| CCN1CCN(CCCC(=O)OCCCC(=O)Oc2c(C(C)C)cccc2C(C)C)CC1.Cl | 6.5 | 31900 | 4.9 | 11 | 456 |
| CC(C)c1cccc(C(C)C)c1OC(=O)CCCOC(=O)CN1CCCCC1.Cl | 8.3 | 39800 | 4.8 | 27 | 440 |
| CC1CCN(CCC(=O)Oc2c(C(C)C)cccc2C(C)C)CC1.Cl | 9.2 | 38900 | 4.2 | 41 | 179 |
| CC(C)c1cccc(C(C)C)c1OC(=O)CN1CCCCC1C.Cl (stereo not given) | 9.2 | 15800 | 1.7 | 27 | 150 |
| CC1CCN(CC(=O)OCCCC(=O)Oc2c(C(C)C)cccc2C(C)C)CC1.Cl | 3.6 | 17600 | 4.8 | 8 | 362 |
| CC(C)c1cccc(C(C)C)c1OC(=O)CCCOC(=O)CCCN1CCOCC1.Cl | 3.6 | 17500 | 4.9 | 7 | 375 |
| CCN1CCN(CC(=O)OCCCC(=O)Oc2c(C(C)C)cccc2C(C)C)CC1.Cl | 10.1 | 50500 | 5 | 16 | 193 |
| CC(C)c1cccc(C(C)C)c1OC(=O)CCN1CCN(C)CC1.Cl | 9 | 33400 | 3.7 | 14 | 156 |
| CC1CCCN(CCCC(=O)OCCCC(=O)Oc2c(C(C)C)cccc2C(C)C)C1.Cl (stereo not given) | 1.9 | 10700 | 5.6 | 11 | 571 |
| CC1CCCN(CC(=O)OCCCC(=O)Oc2c(C(C)C)cccc2C(C)C)C1.Cl (stereo not given) | 2.9 | 14700 | 5.1 | 16 | 547 |

| SMILES | ED50 (Mus musculus [1]) [mg/kg] | LD50 [2] [µmol/kg] | selectivity ratio [3] | Time (Mus musculus [4]) [s] | Time (Mus musculus [5]) [s] |
| --- | --- | --- | --- | --- | --- |
| CC(C)c1cccc(C(C)C)c1OC(=O)CCCOC(=O)CCCN1CCCC1.Cl | 8.9 | 46400 | 5.2 | 1 | 534 |
| CC1CCN(CC(=O)Oc2c(C(C)C)cccc2C(C)C)CC1.Cl | 11.1 | 18000 | 1.6 | 11 | 137 |
| CC1CCCN(CC(=O)Oc2c(C(C)C)cccc2C(C)C)C1.Cl (stereo not given) | 1.7 | 3900 | 2.3 | 27 | 172 |
| CC1CCN(CCCC(=O)OCCCC(=O)Oc2c(C(C)C)cccc2C(C)C)CC1.Cl | 2.5 | 13100 | 5.2 | 3 | 337 |
| CC(C)c1cccc(C(C)C)c1OC(=O)CCCOC(=O)CN1CCCCC1C.Cl (stereo not given) | 13 | 62800 | 4.8 | 9 | 317 |
| CC(C)c1cccc(C(C)C)c1OC(=O)CCCOC(=O)CN1CCCC1.Cl | 11.3 | 56500 | 5 | 18 | 216 |
| CC(C)c1cccc(C(C)C)c1OC(=O)CCN1CCCC1.Cl | 15.1 | 3900 | 2.6 | 5 | 180 |
| CC(C)c1cccc(C(C)C)c1OC(=O)CCCOC(=O)CCCN1CCCCC1.Cl | 2.4 | 12300 | 5.1 | 8 | 413 |
| CCN(CC)CCCC(=O)OCCCC(=O)Oc1c(C(C)C)cccc1C(C)C.Cl | 7.1 | 36300 | 5.1 | 24 | 486 |
| CC(C)c1cccc(C(C)C)c1OC(=O)CCCOC(=O)CN1CCOCC1.Cl | 8.2 | 39600 | 4.8 | 19 | 434 |
| CC(C)c1cccc(C(C)C)c1OC(=O)CCCOC(=O)CCCN1CCCCC1C.Cl (stereo not given) | 6.2 | 32100 | 5.2 | 9 | 412 |
| CCCN(CCC)CCCC(=O)OCCCC(=O)Oc1c(C(C)C)cccc1C(C)C.Cl | 9.2 | 48100 | 5.2 | 21 | 536 |
| CCCN(CCC)CCC(=O)Oc1c(C(C)C)cccc1C(C)C.Cl | 15.2 | 57600 | 3.8 | 5 | 168 |
| CC(C)c1cccc(C(C)C)c1OC(=O)CCN1CCCCC1C.Cl (stereo not given) | 14 | 57700 | 4.1 | 2 | 154 |
| CC1CCCN(CCC(=O)Oc2c(C(C)C)cccc2C(C)C)C1.Cl (stereo not given) | 7.1 | 28700 | 4.1 | 18 | 144 |
| CC(C)c1cccc(C(C)C)c1O [PROPOFOL] | 0.6 | 1600 | 2.7 | 15 | 57 |
